Laboratory results from patent publication US20220251109A1, “OXAAZAQUINAZOLINE-7(8H)-KETONE COMPOUND, PREPARATION METHOD THEREFOR AND PHARMACEUTICAL APPLICATION THEREOF” (GENFLEET THERAPEUTICS (SHANGHAI) INC., priority 2019, published 2022).
Like-named read-outs stand apart in the source and are kept apart here.

How the values were obtained:
Type in all cases: cell-based, human
[1] = system: p-ERK in MIA PaCa2 cells (Kras G12C mutation); experiment: Cell p-ERK detection experiment (HTRF) in MIA PaCa2 cells; details: compound 2 hours
Experimental: MIA PaCa2 was a human pancreatic cancer cell line with Kras G12C mutation, cultured in 10% FBS+2.5% Horse serum DMEM medium. The cells in the logarithmic growth phase were taken, digested with enzyme EDTA, collected, counted and 2.5E4 cells were seeded in a 96-well cell culture plate, cultured overnight. DMSO was used to prepare 1000× compound 3.16-fold gradient concentration stock solution, and medium was used to dilute 200-fold to 5× compound stock solution. On the second day after cell seeding, 5× compound stock solution was added to each cell culture well, the final concentration was 1×, and DMSO content was 0.1%. DMSO was used as an experimental control (control). After the compound was added and cultured for two hours, the remaining medium was removed. 50 ul cell lysis buffer was added to each well, mixed and incubated for 30 minutes, then 16 ul of the mixture was transferred to a 96-well plate with a non-transparent white bottom, and 16 ul cell lysis buffer was added to blank wells. After the completion of the transfer, 4 ul p-ERK HTRF antibody mixture was added to each well, incubated for 4 hours and the fluorescence value was read. The compound inhibition rate IR (%)=(RLU control-RLU compound)/(RLU control-RLU blank)×100% was calculated, Prism 8 four-parameter method was used to fit the compound's gradient dilution concentration and the corresponding cell proliferation inhibition rate, and the IC50 value was calculate.

[2] = system: NCI-H358 cells (Kras G12C mutation); experiment: Cell proliferation inhibition experiment, 3D model, CellTiter-Glo (NCI-H358); details: NCI-H358, 3D sphere plate, 5 days, 2% FBS
Experimental: (§1) NCI-H358 was a human non-small cell lung cancer cell line with Kras G12C mutation, cultured in 10% FBS RPMI-1640 medium; A549 was a human lung adenocarcinoma cell line with Kras G12S mutation, cultured in 10% FBS F-12K medium. The cells in the logarithmic growth phase was taken, digested with trypsin EDTA, collected and counted, and H358 was adjusted to 1.8E4 cells/ml using 2% FBS RPMI-1640 medium, and A549 was adjusted to 8.9E3 cells/ml using 2% FBS F-12K medium; 800 (45 μl) H358 or 400 (45 μl) A549 cells were seeded in a 384-well sphere plate respectively, cultured overnight to establish a 3D cell model. DMSO was used to prepare 1000× compound 3.16-fold gradient concentration stock solution, and 2% FBS medium was used to dilute 100-fold to 10× compound stock solution. On the second day after cell seeding, 5 μl 10× compound stock solution was added to each cell culture well, the final concentration was 1×, and DMSO content was 0.1%. DMSO was used as the experimental control (control) and 2% FBS medium as the blank control (blank). After the compound and cells were added and cultured for 5 days, 25 μl CellTiter-Glo working solution was added to each well, mixed at 400 rpm and incubated for 30 minutes. After 30 minutes at room temperature, 40 μl of the mixture was transferred to a 384-well plate with a non-transparent white bottom, the luminescence chemiluminescence value was read, and the cells proliferation inhibition rate IR (%)=(RLU control-RLU compound)/(RLU control-RLU blank)×100% was calculated, Prism 6 four-parameter method was used to fit the compound's gradient dilution concentration and the corresponding cell proliferation inhibition rate, and the IC50 value was calculate.

[3] = system: A549 cells (Kras G12S mutation); experiment: Cell proliferation inhibition experiment, 3D model, CellTiter-Glo (A549); details: A549, 3D sphere plate, 5 days, 2% FBS
Experimental: as §1

[4] = system: MIA PaCa-2 cells (Kras G12C mutation); experiment: Cell proliferation inhibition experiment, 3D model, CellTiter-Glo (MIA PaCa-2); details: MIA PaCa-2, 3D sphere plate, 5 days, read-out: MIA-PaCa2 IC50
Experimental: MIA PaCa2 was a human pancreatic cancer cell line with Kras G12C mutation, cultured in 10% FBS+2.5% Horse serum DMEM medium; A549 was a human lung adenocarcinoma cell line with Kras G12S mutation, cultured in 10% FBS F-12K medium. The cells in the logarithmic growth phase were taken, digested with enzyme EDTA, collected, counted and 200 MIA PaCa-2 or 400 A549 cells were seeded in a 384-well sphere plate respectively, cultured overnight to establish a 3D cell model. DMSO was used to prepare 1000× compound 3.16-fold gradient concentration stock solution, and medium was used to dilute 100-fold to 10× compound stock solution. On the second day after cell seeding, 10× compound stock solution was added to each cell culture well, the final concentration was 1×, and DMSO content was 0.1%. DMSO was used as an experimental control (control), medium as the blank control (blank). After the compound and cells were added and cultured for 5 days, 30 μl CellTiter-Glo working solution was added to each well, mixed and incubated for 30 minutes. After 30 minutes at room temperature, 40 μl of the mixture was transferred to a 384-well plate with a non-transparent white bottom, the luminescence chemiluminescence value was read, and the cells proliferation inhibition rate IR (%)=(RLU control-RLU compound)/(RLU control-RLU blank)×100% was calculated, XLFit four-parameter method was used to fit the compound's gradient dilution concentration and the corresponding cell proliferation inhibition rate, and the IC50 value was calculate.

[5] = Homo sapiens, MIA PaCa-2, 120 h

SMILES | IC50 [1] | IC50 [2] | IC50 [3] | IC50 ([3]; Homo sapiens, A549, 120 h) | IC50 ([1]; Homo sapiens, MIA PaCa-2, 2 h) | IC50 ([2]; Homo sapiens, NCI-H358, 120 h) | IC50 [4, 5] | IC50 [4]
C=CC(=O)N1CCN2c3nc(=O)n(-c4c(C)ccnc4C(C)C)c4nc(-c5cccc(F)c5F)c(Cl)c(c34)OC[C@@H]2C1 (atropisomer, axis not shown) [Compound Z47-2] | 314 nM | 42 nM | > 10000 nM | – | – | – | – | –
C=CC(=O)N1CCN2c3nc(=O)n(-c4c(C)ccnc4C(C)C)c4nc(-c5c(O)cccc5F)c(F)c(c34)OC[C@H]2C1 (atropisomer, axis not shown) [Compound Z73-1] | 116 nM | 9 nM | > 10000 nM | – | – | – | – | –
C=CC(=O)N1CCN2c3nc(=O)n(-c4c(C)ccnc4C(C)C)c4nc(-c5cccc(Cl)c5F)c(Cl)c(c34)OC[C@H]2C1 (atropisomer, axis not shown) [Compound Z91-1] | 93 nM | 30 nM | 10100 nM | – | – | – | – | –
C=CC(=O)N1CCN2c3nc(=O)n(-c4nccnc4C(C)C)c4nc(-c5ccccc5F)c(Cl)c(c34)OC[C@H]2C1 (atropisomer, axis not shown) [Compound Z104-2] | 185 nM | 28 nM | > 10000 nM | – | – | – | – | –
C=CC(=O)N1CCN2c3nc(=O)n(-c4nccnc4C(C)C)c4nc(-c5c(O)cccc5F)c(Cl)c(c34)OC[C@H]2C1 (atropisomer, axis not shown) [Compound Z105-1] | 395 nM | 38 nM | – | > 30000 nM | – | – | – | –
C=CC(=O)N1CCN2c3nc(=O)n(-c4nccnc4C(C)C)c4nc(-c5c(O)cccc5F)c(F)c(c34)OC[C@H]2C1 (atropisomer, axis not shown) [Compound Z107-1] | 226 nM | 19 nM | – | > 30000 nM | – | – | – | –
C=CC(=O)N1CCN2c3nc(=O)n(-c4c(C)ccnc4C(C)C)c4nc(-c5c(O)cccc5F)c(Cl)c(c34)OC[C@@H]2C1 (single isomer, unassigned) [Compound Z24-1] | 53 nM | 16 nM | > 10000 nM | – | – | – | – | –
C=CC(=O)N1CCN2c3nc(=O)n(-c4c(C)ccnc4C(C)C)c4nc(-c5cccc(C(F)(F)F)c5F)c(Cl)c(c34)OC[C@@H]2C1 (single isomer, unassigned) [Compound Z57-2] | – | 3 nM | > 10000 nM | – | 27 nM | – | – | –
C=CC(=O)N1CCN2c3nc(=O)n(-c4c(C)ccnc4C(C)C)c4nc(-c5ccc(F)cc5F)c(Cl)c(c34)OC[C@H]2C1 (single isomer, unassigned) [Compound Z76-1] | 109 nM | 40 nM | – | > 10000 nM | – | – | – | –
C=CC(=O)N1CCN2c3nc(=O)n(-c4ccccc4C(C)C)c4cc(-c5c(C)ccc6[nH]ncc56)c(Cl)c(c34)OC[C@@H]2C1 [Compound Z20] | – | – | – | 3760 nM | – | 5 nM | 15 nM | –
C=CC(=O)N1CCN2c3nc(=O)n(-c4c(C)ccnc4C(C)C)c4nc(-c5c(O)cccc5F)c(Cl)c(c34)OC[C@@H]2C1 [Compound Z24, (5 aS)-7-acryloyl-3-chloro-2-(2-fluoro-6-hydroxyphenyl)-12-(2-isopropyl-4-methylpyridin-3-yl)-5,5a,6,7,8,9-hexahydro-4-oxo-1,7,9a,10,12-pentazabenzo[4,5] cyclohepta[1,2,3-de]naphthalen-11 (12H)-one] | – | 8 nM | – | 10400 nM | – | – | 9 nM | –
C=CC(=O)N1CCN2c3nc(=O)n(-c4c(C)ccnc4C(C)C)c4cc(-c5c(O)cccc5F)c(Cl)c(c34)OC[C@H]2C1 [Compound Z29] | – | 7 nM | – | 12600 nM | – | – | – | 14 nM
